Data from patent US20150290232A1, “DRUG COMPOSITION FOR TREATING TUMORS AND APPLICATION THEREOF” (priority 2012, published 2015).

Assay: Example 4: body weight of tumor-bearing nude mice
Assay type: in vivo, BALB/c-nu nude mice
Description: Under sterile conditions, the above tumor cells were collected in the logarithmic growth phase. A549 was injected by subcutaneous injection in an amount of 1×10 7/0 2 mL/nude mice (cell viability>90%) into the right subaxillary of the nude mice, and Hep G2 was injected by subcutaneous injection in an amount of 1×10^7/0.2 mL/nude mice (cell viability>90%) into the left subaxillary of the nude mice thus establishing transplated tumor models of lung cancer and liver cancer respectively in nude mice. The administration was carried out from the second day after the inoculation. The experimental group was intragastrically administered at the experimentally designed amount, the negative control group is intragastrically administered with sterile water, and the positive control group was intragastrically administered with Jef. Each mouse was intragastrically administered in 0.4 ml each time and 3 times a day, at 8:00, 14:00 and 20:00. The administrations were successive for 10 days. The day before administration was deemed as Day 0 and the body weight and tumor size of the mice were determined every 5 days to produce a dynamic plot on body weight and tumor growth. On Day 24, the mice were sacrificed and the tumors were taken out and weighed. The tumor inhibition rate (%) was calculated after the effect of the medicament based on a tumor inhibition rate of the control group being zero.
The values determined were presented as mean±standard error (Mean±SD). The experimental data for each group was analyzed with One-way ANOVA method in the SPSS 18.0 statistical software, and p<0.05 means that the differences are statistically significant.

For `COc1ccc2cc1Oc1ccc(cc1)C[C@H]1c3cc(c(OC)cc3CCN1C)Oc1c(OC)c(OC)cc3c1[C@H](C2)N(C)CC3` [TTD, tetrandrine], the “body weight, Final” value (TTD 50 mg/kg/time intragastric, 3 times a day, 10 days, Day 24, Mean ± SD, n=3) was 20.6 ± 1.74 g, the “body weight, Initial” value (TTD 50 mg/kg/time intragastric, 3 times a day, 10 days, Mean ± SD, n=3) was 21.1 ± 0.25 g and the “dynamic variation of the body weight (in words)” value (TTD 50 mg/kg/time, during administration, recovered gradually after termination) was “partial reduction in the body weight”.
